Assay results from US9084765B2, “Use of amisulpride as an anti-emetic” (Acacia Pharma Limited, priority 2010, dated 2015).
Entries after “also recorded” stand apart in the source; their conditions may differ.

What was measured:
[1] = test system: ferrets challenged with cisplatin; assay: Cisplatin-induced emesis in ferrets; type: in vivo, ferret
Method: Amisulpride, white powder, was dissolved in dimethylsulfoxide and then diluted in physiological saline. For vehicle control, physiological saline was used for s,c, administration (apomorphine experiments) and 8.3% DMSO in physiological saline was used for i.v. administration (morphine, cisplatin). […] Cisplatinum II diamine dichloride, yellow powder, was dispersed in 0.2% hydroxymethylcellulose in physiological saline. The method used to test antiemetic activity preclinically follows that described by Gardner et al. (Brit. J. Pharmacol., 116: 3158-3163, 1995) and uses ferrets. Sixty minutes before administration of the test substance, ferrets are placed in individual stainless steel cages (40×50×34 cm) with a grid floor. Then, the animals are challenged with apomorphine (0.25 mg/kg s.c.), morphine (0.4 mg/kg i.p.) or cisplatin (10 mg/kg i.p.) and immediately observed over at least a 2-hour period. Parameters recorded include: number of ferrets showing retches and vomits; latency to first retching; latency to first vomiting; number of retches; vomiting (number of vomits); number of emesis periods and mean duration of emesis periods. Retching is defined as a rhythmic respiratory movement against a closed glottis, while vomiting is defined as a forced expulsion of upper gastrointestinal contents. […]

[2] = reported in the UKPAR (Special Warnings and Precautions for Use); cited from earlier work
[3] = test system: apomorphine-induced vomiting in the dog; settings: reported in U.S. Pat. No. 4,294,828; cited from earlier work
[4] = test system: ferrets challenged with apomorphine; assay: Apomorphine-induced emesis in ferrets; type: in vivo, ferret; settings: 2 hour observation
Method: (§1) Amisulpride, white powder, was dissolved in dimethylsulfoxide and then diluted in physiological saline. For vehicle control, physiological saline was used for s,c, administration (apomorphine experiments) and 8.3% DMSO in physiological saline was used for i.v. administration (morphine, cisplatin). Apomorphine hydrochloride hemihydrates, white powder, was dissolved in physiological saline. The method used to test antiemetic activity preclinically follows that described by Gardner et al. (Brit. J. Pharmacol., 116: 3158-3163, 1995) and uses ferrets. Sixty minutes before administration of the test substance, ferrets are placed in individual stainless steel cages (40×50×34 cm) with a grid floor. Then, the animals are challenged with apomorphine (0.25 mg/kg s.c.), morphine (0.4 mg/kg i.p.) or cisplatin (10 mg/kg i.p.) and immediately observed over at least a 2-hour period. Parameters recorded include: number of ferrets showing retches and vomits; latency to first retching; latency to first vomiting; number of retches; vomiting (number of vomits); number of emesis periods and mean duration of emesis periods. Retching is defined as a rhythmic respiratory movement against a closed glottis, while vomiting is defined as a forced expulsion of upper gastrointestinal contents. […]

[5] = test system: ferrets challenged with morphine; assay: Morphine-induced emesis in ferrets; type: in vivo, ferret
Method: as §1, with “Morphine hydrochloride,” for “Apomorphine hydrochloride hemihydrates,”

For `CCN1CCCC1CNC(=O)c1cc(S(=O)(=O)CC)c(N)cc1OC` (centres unmarked) [Amisulpride], the “efficacy compared with droperidol” value ([1]; amisulpride 0.6 mg/kg (one animal excluded) and 2 mg/kg versus droperidol 3 mg/kg given 5 minutes before cisplatin) is given as “better than droperidol at 3 mg/kg; also recorded: more effective than droperidol at 3 mg/kg”, the “effect on emetic effects of cisplatin” value ([1]; i.v. before cisplatin, 72 hour period, versus vehicle control) is given as “reduces the emetic effects of cisplatin, in dose-dependent manner” and the “prolongation of the QT interval” value [2] is given as “induces a dose dependent prolongation of the QT interval”. The apomorphine-induced vomiting [3] was “inhibit apomorphine-induced vomiting in the dog”, the “effect on apomorphine emesis” value ([4]; amisulpride 10 μg/kg s.c.) was “totally inhibited” and the “effect on apomorphine emesis” value ([4]; amisulpride 100 μg/kg s.c.) was “totally inhibited”. The incidence of vomits ([5]; amisulpride 3 mg/kg i.v. before morphine 0.4 mg/kg i.p.) was “abolished” and the “effect on emetic effects induced by morphine” value ([5]; i.v. 5 minutes before morphine, 2 hour observation, versus vehicle control) was “reduces the emetic effects induced by morphine, in dose-dependent manner”.
